In patent US7524886B2, “L-(−)-moprolol L-(+)-tartrate” (Aziende Chimiche Riunite Angelini Francesco A.C.R.A.F. …, priority 2004, dated 2009):

System: rabbit eye (conjunctiva, iris, cornea)
Assay: Ocular tolerability (Draize) in rabbits
Format: in vivo, rabbits (New Zealand White)
Experimental: Two aqueous solutions were used.
The first contained 1% by weight of L-(−)-moprolol hydrochloride (corresponding to 0.87% by weight of L-(−)-moprolol). The second contained 1.14% by weight of L-(−)-moprolol L-(+)-tartrate (2:1) (corresponding to 0.87% by weight of L-(−)-moprolol).
12 male rabbits (New Zealand White) with an average weight of 2 kg and an average age of ten months were used, divided into two groups of six rabbits each. The first group was treated with 0.1 ml of the first test solution three times a day for fifteen days. The second group was treated with 0.1 ml of the second test solution three times a day for fifteen days.
The tolerability was evaluated according to J. Draize et al., Pharmacol. Exp. Ther., 83, 377-390 (1944).

[1] = Draize score, male rabbits, 0.1 ml aqueous solution (0.87% by weight L-(−)-moprolol) three times a day for fifteen days

COc1ccccc1OC[C@@H](O)CNC(C)C.COc1ccccc1OC[C@@H](O)CNC(C)C.O=C(O)C(O)C(O)C(=O)O [L-(−)-moprolol L-(+)-tartrate, L-(−)-moprolol L-(+)-tartrate (2:1)]
Conjunctiva Lachrymation [1]: 1 | Conjunctiva Reddening [1]: 0 | Conjunctiva Swelling [1]: 0 | Cornea Area of the cornea affected by opacity [1]: 0 | Cornea Opacity [1]: 0 | Iris [1]: 0 | local tolerability (rabbit, in vivo): better local tolerability | Total Score (sum of Draize scores, male rabbits, 0.1 ml aqueous solution (0.87% by weight L-(−)-moprolol) three times a day for fifteen days): 1

COc1ccccc1OC[C@@H](O)CNC(C)C.Cl [L-(−)-moprolol hydrochloride, reference compound]
Conjunctiva Lachrymation (rabbit, in vivo): 2 | Conjunctiva Reddening (rabbit, in vivo): 1 | Conjunctiva Swelling (rabbit, in vivo): 2 | Cornea Area of the cornea affected by opacity (rabbit, in vivo): 0 | Cornea Opacity (rabbit, in vivo): 0 | Iris (rabbit, in vivo): 0 | Total Score (rabbit, in vivo): 5
